Source: paper PMC6199744, “Development of Chemical Proteomics for the Folateome and Analysis of the Kinetoplastid Folateome” (ACS Infectious Diseases, 2018)
Like-named read-outs stand apart in the source and are kept apart here.

How the values were obtained:
Type in all cases: binding
[1] = molecular target: T1, HeLa cell extract proteins (Homo sapiens, UniProt O94855)
T1 construct: endogenous in cells; host or cells: HeLa cell extract
T1 sequence (O94855 1-1032): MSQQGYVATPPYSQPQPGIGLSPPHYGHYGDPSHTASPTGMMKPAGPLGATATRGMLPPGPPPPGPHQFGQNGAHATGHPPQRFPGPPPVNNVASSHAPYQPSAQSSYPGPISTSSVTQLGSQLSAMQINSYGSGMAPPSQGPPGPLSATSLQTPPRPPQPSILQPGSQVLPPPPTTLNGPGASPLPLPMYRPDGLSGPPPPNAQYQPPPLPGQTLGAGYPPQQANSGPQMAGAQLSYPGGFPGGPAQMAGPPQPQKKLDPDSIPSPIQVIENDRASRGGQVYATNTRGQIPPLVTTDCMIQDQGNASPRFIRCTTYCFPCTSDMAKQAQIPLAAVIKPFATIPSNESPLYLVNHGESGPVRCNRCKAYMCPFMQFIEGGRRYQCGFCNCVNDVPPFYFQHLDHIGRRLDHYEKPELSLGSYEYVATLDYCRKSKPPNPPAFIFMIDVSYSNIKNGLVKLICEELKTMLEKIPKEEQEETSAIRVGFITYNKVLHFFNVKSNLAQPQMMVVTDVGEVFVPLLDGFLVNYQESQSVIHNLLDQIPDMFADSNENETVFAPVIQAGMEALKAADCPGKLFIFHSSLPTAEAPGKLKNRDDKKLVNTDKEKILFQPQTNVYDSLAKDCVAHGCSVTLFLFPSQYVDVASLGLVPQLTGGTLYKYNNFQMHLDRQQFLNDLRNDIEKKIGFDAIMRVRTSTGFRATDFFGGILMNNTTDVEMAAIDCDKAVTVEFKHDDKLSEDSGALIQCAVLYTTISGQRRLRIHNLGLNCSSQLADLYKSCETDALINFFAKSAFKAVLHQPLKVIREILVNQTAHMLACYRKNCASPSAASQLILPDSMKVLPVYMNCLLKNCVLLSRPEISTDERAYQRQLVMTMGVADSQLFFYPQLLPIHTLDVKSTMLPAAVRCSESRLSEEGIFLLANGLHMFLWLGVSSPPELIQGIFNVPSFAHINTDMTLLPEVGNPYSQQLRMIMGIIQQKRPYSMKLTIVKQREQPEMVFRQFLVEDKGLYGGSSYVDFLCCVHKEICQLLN

[2] = molecular target: T2, HeLa cell extract proteins (Homo sapiens, UniProt P13727)
T2 construct: endogenous in cells; host or cells: HeLa cell extract
T2 sequence (P13727 106-222): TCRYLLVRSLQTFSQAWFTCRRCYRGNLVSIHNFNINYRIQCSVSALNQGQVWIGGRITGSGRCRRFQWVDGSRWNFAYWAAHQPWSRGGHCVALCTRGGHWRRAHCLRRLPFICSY

[3] = molecular target: T3, HeLa cell extract proteins (Homo sapiens, UniProt P63241)
T3 construct: endogenous in cells; host or cells: HeLa cell extract

[4] = molecular target: T4, HeLa cell extract proteins (Homo sapiens, UniProt Q15020)
T4 construct: endogenous in cells; host or cells: HeLa cell extract
T4 sequence (Q15020 1-963): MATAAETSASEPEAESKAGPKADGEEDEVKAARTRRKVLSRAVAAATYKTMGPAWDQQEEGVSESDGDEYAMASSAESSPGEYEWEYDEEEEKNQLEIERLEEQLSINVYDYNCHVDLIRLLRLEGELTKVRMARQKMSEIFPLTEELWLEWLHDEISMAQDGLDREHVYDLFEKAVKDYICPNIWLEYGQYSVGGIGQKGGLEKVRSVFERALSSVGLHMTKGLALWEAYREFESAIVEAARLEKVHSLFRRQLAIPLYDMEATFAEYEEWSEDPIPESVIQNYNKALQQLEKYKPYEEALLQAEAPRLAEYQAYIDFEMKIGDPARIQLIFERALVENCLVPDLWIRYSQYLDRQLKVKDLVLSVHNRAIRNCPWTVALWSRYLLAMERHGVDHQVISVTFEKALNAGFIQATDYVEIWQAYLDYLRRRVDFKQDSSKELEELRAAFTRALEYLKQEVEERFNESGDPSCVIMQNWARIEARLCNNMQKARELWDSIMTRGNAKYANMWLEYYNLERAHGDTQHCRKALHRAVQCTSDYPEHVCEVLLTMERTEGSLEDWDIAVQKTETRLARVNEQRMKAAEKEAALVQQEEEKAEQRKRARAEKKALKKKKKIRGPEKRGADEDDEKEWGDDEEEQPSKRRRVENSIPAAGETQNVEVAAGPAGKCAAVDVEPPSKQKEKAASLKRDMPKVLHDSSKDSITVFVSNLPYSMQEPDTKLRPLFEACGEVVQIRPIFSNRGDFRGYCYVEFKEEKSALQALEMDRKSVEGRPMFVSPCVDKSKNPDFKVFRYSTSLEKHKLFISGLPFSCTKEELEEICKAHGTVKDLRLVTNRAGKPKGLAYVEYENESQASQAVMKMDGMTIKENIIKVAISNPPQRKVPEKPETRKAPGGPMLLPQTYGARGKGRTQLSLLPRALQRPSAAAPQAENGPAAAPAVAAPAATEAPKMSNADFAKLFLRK

[5] = molecular target: T5, HeLa cell extract proteins (Homo sapiens, UniProt Q8IWA4)
T5 construct: endogenous in cells; host or cells: HeLa cell extract
T5 sequence (Q8IWA4 1-741): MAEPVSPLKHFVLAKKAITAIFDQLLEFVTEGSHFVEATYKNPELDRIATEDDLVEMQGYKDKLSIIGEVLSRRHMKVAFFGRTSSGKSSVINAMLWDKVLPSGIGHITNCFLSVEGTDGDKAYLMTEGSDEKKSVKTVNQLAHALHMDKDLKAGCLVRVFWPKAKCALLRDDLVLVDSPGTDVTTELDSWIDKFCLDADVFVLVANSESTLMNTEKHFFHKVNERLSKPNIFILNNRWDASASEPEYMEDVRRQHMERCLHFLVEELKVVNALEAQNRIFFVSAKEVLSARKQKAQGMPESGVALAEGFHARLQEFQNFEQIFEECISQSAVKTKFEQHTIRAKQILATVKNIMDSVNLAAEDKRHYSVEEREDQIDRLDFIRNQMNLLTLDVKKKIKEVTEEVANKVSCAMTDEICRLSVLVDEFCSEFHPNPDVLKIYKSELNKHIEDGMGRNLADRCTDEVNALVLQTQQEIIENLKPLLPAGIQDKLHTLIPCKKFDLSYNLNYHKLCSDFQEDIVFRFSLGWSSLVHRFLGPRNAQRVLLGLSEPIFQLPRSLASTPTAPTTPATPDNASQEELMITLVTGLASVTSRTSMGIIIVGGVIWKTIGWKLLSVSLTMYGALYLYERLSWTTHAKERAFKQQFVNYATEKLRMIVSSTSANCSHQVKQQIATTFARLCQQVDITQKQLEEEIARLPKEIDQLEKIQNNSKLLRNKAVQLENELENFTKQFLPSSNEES

[6] = molecular target: T6, HeLa cell extract proteins (Homo sapiens, UniProt Q9UPT8)
T6 construct: endogenous in cells; host or cells: HeLa cell extract
T6 sequence (Q9UPT8 whole entry): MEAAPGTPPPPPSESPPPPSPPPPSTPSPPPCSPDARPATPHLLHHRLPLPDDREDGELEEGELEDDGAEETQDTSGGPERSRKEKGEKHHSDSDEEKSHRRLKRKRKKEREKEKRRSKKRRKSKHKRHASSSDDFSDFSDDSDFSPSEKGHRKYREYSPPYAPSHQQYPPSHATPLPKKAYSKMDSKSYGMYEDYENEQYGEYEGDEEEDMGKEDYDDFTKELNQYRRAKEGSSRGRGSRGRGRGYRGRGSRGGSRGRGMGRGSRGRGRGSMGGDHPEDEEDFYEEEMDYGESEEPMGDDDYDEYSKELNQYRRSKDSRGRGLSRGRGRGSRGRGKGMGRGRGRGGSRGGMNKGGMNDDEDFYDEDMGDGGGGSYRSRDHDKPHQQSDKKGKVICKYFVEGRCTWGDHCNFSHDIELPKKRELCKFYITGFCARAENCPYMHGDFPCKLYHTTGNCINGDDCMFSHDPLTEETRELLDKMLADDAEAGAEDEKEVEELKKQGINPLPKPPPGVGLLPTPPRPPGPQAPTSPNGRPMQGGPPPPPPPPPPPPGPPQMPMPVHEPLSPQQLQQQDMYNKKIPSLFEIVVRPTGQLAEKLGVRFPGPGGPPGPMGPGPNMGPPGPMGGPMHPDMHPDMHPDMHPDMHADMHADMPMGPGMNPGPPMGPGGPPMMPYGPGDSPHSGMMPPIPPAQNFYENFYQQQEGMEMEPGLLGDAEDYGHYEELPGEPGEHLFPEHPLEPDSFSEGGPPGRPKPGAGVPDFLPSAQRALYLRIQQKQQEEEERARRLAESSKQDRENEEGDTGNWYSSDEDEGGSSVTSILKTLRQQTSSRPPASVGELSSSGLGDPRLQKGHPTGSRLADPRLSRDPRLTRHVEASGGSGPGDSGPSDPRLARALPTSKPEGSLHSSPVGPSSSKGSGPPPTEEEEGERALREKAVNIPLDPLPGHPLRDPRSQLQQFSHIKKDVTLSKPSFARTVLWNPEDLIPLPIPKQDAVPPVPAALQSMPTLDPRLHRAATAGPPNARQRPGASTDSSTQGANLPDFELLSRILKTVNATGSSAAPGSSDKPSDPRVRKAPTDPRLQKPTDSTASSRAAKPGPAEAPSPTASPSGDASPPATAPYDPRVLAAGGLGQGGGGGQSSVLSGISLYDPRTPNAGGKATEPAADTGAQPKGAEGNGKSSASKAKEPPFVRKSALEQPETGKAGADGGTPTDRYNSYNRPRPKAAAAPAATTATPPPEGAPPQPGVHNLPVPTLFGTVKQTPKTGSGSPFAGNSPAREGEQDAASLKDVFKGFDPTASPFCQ

T3 sequence (P63241 whole entry): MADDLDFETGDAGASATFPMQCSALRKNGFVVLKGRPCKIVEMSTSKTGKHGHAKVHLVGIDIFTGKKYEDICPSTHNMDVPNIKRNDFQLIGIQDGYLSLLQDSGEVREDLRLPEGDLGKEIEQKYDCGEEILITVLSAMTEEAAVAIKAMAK

Structure (SMILES)	fold changes relative to vehicle control ([1]; HeLa, captured protein SEC24D)	fold changes relative to vehicle control ([2]; HeLa, captured protein PRG2)	fold changes relative to vehicle control ([3]; HeLa, captured protein EIF5A)	fold changes relative to vehicle control ([4]; protein SART3, HeLa)	fold changes relative to vehicle control ([5]; protein MFN1, HeLa)	fold changes relative to vehicle control ([6]; HeLa, protein ZC3H4)	fold changes relative to vehicle control [1]	fold changes relative to vehicle control [2]	fold changes relative to vehicle control [3]	fold changes relative to vehicle control [4]	fold changes relative to vehicle control [5]	fold changes relative to vehicle control [6]
Nc1nc2c(c(=O)[nH]1)N(C=O)C(CNc1ccc(C(=O)N[C@@H](CCC(=O)O)C(=O)O)cc1)CN2 (stereo partly drawn) [LEU, leucovorin]	1.12	0.92	1.12	0.82	0.81	0.99						
Nc1nc2[nH]cc(CCc3ccc(C(=O)N[C@@H](CCC(=O)O)C(=O)O)cc3)c2c(=O)[nH]1 [PTX, pemetrexed]							1.09	0.86	1.32	0.84	0.89	1.06
NCCOCCOCC(=O)Nc1nc2ncc(CNc3ccc(C(=O)NC(CCC(=O)O)C(=O)O)cc3)nc2c(=O)[nH]1 (stereo not drawn) [compound 6]	1.15	0.77	1.61	0.89	0.99	1.1						
NCCCNc1ccc(C(=O)NC(CCC(=O)O)C(=O)O)cc1 (stereo not drawn) [compound 7]	1.04	1.01	1.02	0.94	1.02	1.01						
